Tested on: male mice B6 Lep ob/ob
Experiment: In-vivo testing for regulation of triglycerides in blood plasma (obese mice on high fat diet)
Settings: obese mice fed with high fat diet for 7 weeks; 30 mg/kg/day, p.o., 14 days; whole blood, test strips "Lipid panel"
Description: This effect is probed in obese mice fed with high fat diet. In the following paragraphs the method of this study is described.
The study is done using six weeks old male mice B6 Lep ob/ob, obtained from Charles River (France). Mice are divided in 3 groups: I (control), II (vehicle), III (example 0).
The animals of the group I receive the standard diet (D-12450B, Research Diets, NJ, USA).
The animals of the groups II and III are fed with a High Fat Diet (D-12492, Research Diets, NJ, USA), in both cases for 7 weeks (References 1 and 2).
The animals of the groups III are fed with a High Fat Diet (D-12492, Research Diets, NJ, USA), in both cases for 7 weeks (References 1 and 2).
At the end of the feeding period of 7 weeks, the treatment period (14 days) is started: Group II mice receive the vehicle (10 ml/kg/day, po, of the aqueous solution of acacia gum, 5% W/V). Group III is administered with 30 mg/kg/day, p.o., of the inventive compound (R)-5-(4-chlorophenyl)-1-(2,4-dichlorophenyl)-4,5-dihydro-pyrazole-3-carboxylic acid according to Example 0. […] The three groups of mice have the same diet than in the previous period.
At the end of the 14 days period of treatment, the blood levels of triglicerides of the animals are determined. […]

**Q.** With “(S)-5-(4-chlorophenyl)-1-(2,4-dichlorophenyl)-4,5-dihydro-pyrazole-3-carboxylic acid [example 0]” as the substance, how does the “blood levels of triglicerides” value read?
**A.** The value was “inhibitor of high blood levels of triglicerides”.
